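Compound exposure: 48 hours, 5 concentrations, 96-well plates. TGI: concentration producing complete growth inhibition.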
Legend:
Test in all cases: growth of human tumour cells (NCI), 48 h
SN12C renal = tested on: SN12C renal
SNB-75 CNS = tested on: SNB-75 CNS
HT29 colon = tested on: HT29 colon
TK-10 renal = tested on: TK-10 renal
HOP-18 NSCLC = tested on: HOP-18 NSCLC
LXFL 529 NSCLC = tested on: LXFL 529 NSCLC
SF-539 CNS = tested on: SF-539 CNS
SR leukemia = tested on: SR leukemia
KM20L2 colon = tested on: KM20L2 colon
SK-OV-3 ovarian = tested on: SK-OV-3 ovarian
IGROV1 ovarian = tested on: IGROV1 ovarian
OVCAR-4 ovarian = tested on: OVCAR-4 ovarian
UACC-62 melanoma = tested on: UACC-62 melanoma
OVCAR-5 ovarian = tested on: OVCAR-5 ovarian
NCI-H23 lung = tested on: NCI-H23 lung
DMS 114 small cell lung = tested on: DMS 114 small cell lung
SNB-19 CNS = tested on: SNB-19 CNS
UACC-257 melanoma = tested on: UACC-257 melanoma
KM12 colon = tested on: KM12 colon
K-562 leukemia = tested on: K-562 leukemia
HOP-62 NSCLC = tested on: HOP-62 NSCLC
OVCAR-3 ovarian = tested on: OVCAR-3 ovarian
A498 renal = tested on: A498 renal
HCC-2998 colon = tested on: HCC-2998 colon
NCI-H226 lung = tested on: NCI-H226 lung
CCRF-CEM leukemia = tested on: CCRF-CEM leukemia
MALME-3M melanoma = tested on: MALME-3M melanoma
XF 498 CNS = tested on: XF 498 CNS
EKVX NSCLC = tested on: EKVX NSCLC
OVCAR-8 ovarian = tested on: OVCAR-8 ovarian
SK-MEL-28 melanoma = tested on: SK-MEL-28 melanoma
RXF 393 renal = tested on: RXF 393 renal
UO-31 renal = tested on: UO-31 renal
HOP-92 NSCLC = tested on: HOP-92 NSCLC
CAKI-1 renal = tested on: CAKI-1 renal
U251 CNS = tested on: U251 CNS
SK-MEL-5 melanoma = tested on: SK-MEL-5 melanoma
M14 melanoma = tested on: M14 melanoma
NCI-H522 lung = tested on: NCI-H522 lung
A549 NSCLC = tested on: A549 NSCLC
LOX IMVI melanoma = tested on: LOX IMVI melanoma
ACHN renal = tested on: ACHN renal
SW-620 colon = tested on: SW-620 colon
SNB-78 CNS = tested on: SNB-78 CNS
NCI-H460 lung = tested on: NCI-H460 lung
RPMI-8226 leukemia = tested on: RPMI-8226 leukemia
SK-MEL-2 melanoma = tested on: SK-MEL-2 melanoma
HCT-15 colon = tested on: HCT-15 colon
M19-MEL melanoma = tested on: M19-MEL melanoma
HCT-116 colon = tested on: HCT-116 colon
786-0 renal = tested on: 786-0 renal
COLO 205 colon = tested on: COLO 205 colon
SF-268 CNS = tested on: SF-268 CNS
HL-60(TB) leukemia = tested on: HL-60(TB) leukemia
SF-295 CNS = tested on: SF-295 CNS
MOLT-4 leukemia = tested on: MOLT-4 leukemia
NCI/ADR-RES ovarian = tested on: NCI/ADR-RES ovarian
DMS 273 small cell lung = tested on: DMS 273 small cell lung
MDA-MB-231 breast = tested on: MDA-MB-231 breast
MCF7 breast = tested on: MCF7 breast
DLD-1 colon = tested on: DLD-1 colon
MDA-MB-435 = tested on: MDA-MB-435
DU-145 prostate = tested on: DU-145 prostate
T-47D breast = tested on: T-47D breast
BT-549 breast = tested on: BT-549 breast
HS 578T breast = tested on: HS 578T breast
PC-3 prostate = tested on: PC-3 prostate

Cc1cc(Cl)ccc1NC(=O)C1C(=O)N(c2ccc(Cl)cc2C)C(=O)/C1=N\N (configuration not stated)
TGI (SN12C renal): > 100 µM
TGI (SNB-75 CNS): > 100 µM
TGI (HT29 colon): > 100 µM
TGI (TK-10 renal): 99.3 µM
TGI (HOP-18 NSCLC): > 100 µM
TGI (LXFL 529 NSCLC): > 100 µM
TGI (SF-539 CNS): > 100 µM
TGI (SR leukemia): > 100 µM
TGI (KM20L2 colon): > 100 µM
TGI (SK-OV-3 ovarian): > 100 µM
TGI (IGROV1 ovarian): > 100 µM
TGI (OVCAR-4 ovarian): > 100 µM
TGI (UACC-62 melanoma): > 100 µM
TGI (OVCAR-5 ovarian): > 100 µM
TGI (NCI-H23 lung): > 100 µM
TGI (DMS 114 small cell lung): > 100 µM
TGI (SNB-19 CNS): > 100 µM
TGI (UACC-257 melanoma): > 100 µM
TGI (KM12 colon): > 100 µM
TGI (K-562 leukemia): > 100 µM
TGI (HOP-62 NSCLC): > 100 µM
TGI (OVCAR-3 ovarian): > 100 µM
TGI (A498 renal): 93.7 µM
TGI (HCC-2998 colon): 67.3 µM
TGI (NCI-H226 lung): 93.8 µM
TGI (CCRF-CEM leukemia): > 100 µM
TGI (MALME-3M melanoma): > 100 µM
TGI (XF 498 CNS): > 100 µM
TGI (EKVX NSCLC): > 100 µM
TGI (OVCAR-8 ovarian): > 100 µM
TGI (SK-MEL-28 melanoma): > 100 µM
TGI (RXF 393 renal): > 100 µM
TGI (UO-31 renal): > 100 µM
TGI (HOP-92 NSCLC): > 100 µM
TGI (CAKI-1 renal): > 100 µM
TGI (U251 CNS): > 100 µM
TGI (SK-MEL-5 melanoma): > 100 µM
TGI (M14 melanoma): > 100 µM
TGI (NCI-H522 lung): > 100 µM
TGI (A549 NSCLC): > 100 µM
TGI (LOX IMVI melanoma): > 100 µM
TGI (ACHN renal): > 100 µM
TGI (SW-620 colon): > 100 µM
TGI (SNB-78 CNS): > 100 µM
TGI (NCI-H460 lung): > 100 µM
TGI (RPMI-8226 leukemia): > 100 µM
TGI (SK-MEL-2 melanoma): 90.9 µM
TGI (HCT-15 colon): > 100 µM
TGI (M19-MEL melanoma): > 100 µM
TGI (HCT-116 colon): > 100 µM
TGI (786-0 renal): > 100 µM
TGI (COLO 205 colon): > 100 µM
TGI (SF-268 CNS): 96.4 µM
TGI (HL-60(TB) leukemia): > 100 µM
TGI (SF-295 CNS): > 100 µM
TGI (MOLT-4 leukemia): > 100 µM

COc1cc(/C=C\c2ccc(SC)cc2)cc(OC)c1OC
TGI (SN12C renal): > 100 µM
TGI (SNB-75 CNS): > 100 µM
TGI (HT29 colon): 0.59 µM
TGI (TK-10 renal): > 100 µM
TGI (HOP-18 NSCLC): 11.6 µM
TGI (NCI/ADR-RES ovarian): > 100 µM
TGI (LXFL 529 NSCLC): 5.38 µM
TGI (SF-539 CNS): 0.0364 µM
TGI (SR leukemia): 15.1 µM
TGI (KM20L2 colon): 0.0448 µM
TGI (SK-OV-3 ovarian): 1.75 µM
TGI (IGROV1 ovarian): > 17.1 µM
TGI (DMS 273 small cell lung): 1.95 µM
TGI (OVCAR-4 ovarian): > 100 µM
TGI (MDA-MB-231 breast): > 100 µM
TGI (UACC-62 melanoma): > 100 µM
TGI (OVCAR-5 ovarian): > 18.5 µM
TGI (NCI-H23 lung): 0.408 µM
TGI (DMS 114 small cell lung): 0.268 µM
TGI (KM12 colon): 2.8 µM
TGI (K-562 leukemia): > 46.8 µM
TGI (MCF7 breast): > 100 µM
TGI (HOP-62 NSCLC): > 76.3 µM
TGI (OVCAR-3 ovarian): 57.8 µM
TGI (A498 renal): > 54.1 µM
TGI (HCC-2998 colon): 2.17 µM
TGI (DLD-1 colon): > 100 µM
TGI (CCRF-CEM leukemia): > 47.1 µM
TGI (MDA-MB-435): > 100 µM
TGI (MALME-3M melanoma): > 100 µM
TGI (XF 498 CNS): 19.8 µM
TGI (DU-145 prostate): > 100 µM
TGI (EKVX NSCLC): > 100 µM
TGI (OVCAR-8 ovarian): > 41 µM
TGI (SK-MEL-28 melanoma): > 100 µM
TGI (RXF 393 renal): 0.0402 µM
TGI (T-47D breast): > 100 µM
TGI (UO-31 renal): 45.3 µM
TGI (HOP-92 NSCLC): > 46.1 µM
TGI (U251 CNS): 1.11 µM
TGI (SK-MEL-5 melanoma): 2.72 µM
TGI (M14 melanoma): > 100 µM
TGI (NCI-H522 lung): 0.0369 µM
TGI (A549 NSCLC): > 100 µM
TGI (LOX IMVI melanoma): 45.2 µM
TGI (ACHN renal): > 100 µM
TGI (SW-620 colon): > 100 µM
TGI (SNB-78 CNS): > 100 µM
TGI (NCI-H460 lung): > 49.3 µM
TGI (BT-549 breast): > 100 µM
TGI (RPMI-8226 leukemia): 25.2 µM
TGI (SK-MEL-2 melanoma): 0.841 µM
TGI (HCT-15 colon): 29.4 µM
TGI (M19-MEL melanoma): > 100 µM
TGI (HCT-116 colon): > 26.3 µM
TGI (786-0 renal): 18.5 µM
TGI (COLO 205 colon): 0.108 µM
TGI (HS 578T breast): > 100 µM
TGI (SF-268 CNS): 56.1 µM
TGI (HL-60(TB) leukemia): 0.463 µM
TGI (PC-3 prostate): > 100 µM
TGI (SF-295 CNS): < 0.0204 µM
TGI (MOLT-4 leukemia): 28.9 µM

CC(=O)OC(C)(C)C1CCC(C)(C(O)COc2ccc(CCNC(=O)c3ccccc3)cc2)O1 (configuration not stated)
TGI (SN12C renal): > 100 µM
TGI (SNB-75 CNS): > 100 µM
TGI (HT29 colon): > 100 µM
TGI (TK-10 renal): > 100 µM
TGI (HOP-18 NSCLC): > 100 µM
TGI (LXFL 529 NSCLC): > 100 µM
TGI (SF-539 CNS): > 100 µM
TGI (SR leukemia): > 100 µM
TGI (KM20L2 colon): > 100 µM
TGI (SK-OV-3 ovarian): > 100 µM
TGI (IGROV1 ovarian): > 100 µM
TGI (DMS 273 small cell lung): > 100 µM
TGI (OVCAR-4 ovarian): > 100 µM
TGI (UACC-62 melanoma): > 100 µM
TGI (OVCAR-5 ovarian): > 100 µM
TGI (NCI-H23 lung): > 100 µM
TGI (DMS 114 small cell lung): 62.2 µM
TGI (SNB-19 CNS): > 100 µM
TGI (UACC-257 melanoma): > 100 µM
TGI (KM12 colon): > 100 µM
TGI (HOP-62 NSCLC): > 100 µM
TGI (OVCAR-3 ovarian): > 100 µM
TGI (DLD-1 colon): > 100 µM
TGI (CCRF-CEM leukemia): > 100 µM
TGI (MALME-3M melanoma): > 100 µM
TGI (XF 498 CNS): 33.4 µM
TGI (OVCAR-8 ovarian): > 100 µM
TGI (SK-MEL-28 melanoma): > 100 µM
TGI (RXF 393 renal): > 100 µM
TGI (UO-31 renal): > 100 µM
TGI (HOP-92 NSCLC): > 100 µM
TGI (CAKI-1 renal): > 100 µM
TGI (U251 CNS): > 100 µM
TGI (SK-MEL-5 melanoma): 29.4 µM
TGI (M14 melanoma): > 100 µM
TGI (NCI-H522 lung): > 100 µM
TGI (A549 NSCLC): > 100 µM
TGI (LOX IMVI melanoma): > 100 µM
TGI (ACHN renal): > 100 µM
TGI (SW-620 colon): > 100 µM
TGI (SNB-78 CNS): > 100 µM
TGI (NCI-H460 lung): > 100 µM
TGI (RPMI-8226 leukemia): > 100 µM
TGI (SK-MEL-2 melanoma): > 100 µM
TGI (HCT-15 colon): > 100 µM
TGI (M19-MEL melanoma): > 100 µM
TGI (HCT-116 colon): > 100 µM
TGI (786-0 renal): > 100 µM
TGI (COLO 205 colon): > 100 µM
TGI (SF-268 CNS): > 100 µM
TGI (HL-60(TB) leukemia): 67.8 µM
TGI (SF-295 CNS): > 100 µM
TGI (MOLT-4 leukemia): 42.5 µM

Source: PubChem BioAssay (NCI)
